Legend:
IL-8 = IL-8 secretion after exposure to iron chelators (ELISA); assay type: cell-based, human; guinea pig; details: following HIF-1α nuclear translocation; enhanced by PMA differentiation of the human cells
TNF-α = TNF-α production after exposure to iron chelators (L929-cytotoxicity assay); assay type: cell-based, human; guinea pig; details: following HIF-1α upregulation and nuclear translocation
Description: (§1) Alveolar macrophages were procured from naïve and BCG-vaccinated guinea pigs by lavage of the lungs in situ immediately following euthanasia. The isolated cells were subjected to Percoll gradient centrifugation (BO & Babiuk) to remove contaminating epithelial cells, neutrophils and erythrocytes. The cells were subsequently incubated overnight in chamber slides (Nunc) in RPMI medium with 10% fetal bovine serum (FBS) and antibiotics to allow the cells to adhere. THP-1 and HL60 cells, obtained from the ATCC (Rockville, Md.), were maintained in suspension in RPMI/10% FBS. The various cell types were washed thoroughly in Hank's balanced salt solution (HBSS) before incubation in HBSS without or with mycobactin or desferroxamine at various concentrations and for various length of time (see result section). At the end of the incubation time the spend media were collected and stored at −70° C. for later assay for IL-8 and TNF-α. The cells were then either spotted onto Teflon coated slides for immunolabelling for HIF-1α or HO-1 (see above) or were subjected to differential lysis to procure cytoplasmic and nuclear proteins, respectively. The protein samples were separated on 10% SDS-polyacrylamide gels and blotted onto nitrocellulose membranes. […]
(§2) TNF-α was quantitated using the L929-cytotoxicity assay and TGFβ1 assay was done by ELISA.

TGFβ1 = TGFβ1 production after exposure to iron chelators (ELISA); assay type: cell-based, human; guinea pig; details: following HIF-1α upregulation and nuclear translocation
Description: as §1, §2

[1] = system: HIF-1α in THP-1 and HL-60 cells and guinea pig alveolar macrophages; assay: Induction of HIF-1α in myelomonocytic cells and alveolar macrophages exposed to iron chelators in vitro; assay type: cell-based, human; guinea pig; details: for accumulation of cytoplasmic HIF-1α followed by nuclear translocation in a subset of the cells / concentration for HIF-1α induction effect (molar level): THP-1, HL-60 cells and guinea pig alveolar macrophages
[2] = Iron binding capacity by the ferrozine method; assay type: physicochemical; details: for iron binding capacity: ferrozine method
Description: Iron saturated mycobactin J was purchased from Allied Monitor (Fayette, Mo.). Iron was removed and mycobactin purified by initially reconstituting the lyophilized solution of crude Fe^3+-mycobactin J complex in CHCl3 and 4N HCl. The suspension was stirred for 30 min. The water phase was separated and 4N HCl was added. After being stirred for 30 min, water phase was removed; this process was conducted three times to provide clear color solution. The CHCl3 phase was dried over Na2SO4, and concentrated in vacuo. Purification by SiO2 (CHCl3:MeOH=20:1) gave Fe^3+-free mycobactin J. The preparation was determined to be greater than 94% pure by NMR spectroscopy. Crude preparations of mycobactin J (50 mgs) yielded 9.8 mg following iron removal and purification. The iron binding capacity of iron saturated and Fe^3+-free preparations were determined by the ferrozine method (Eagle Diagnostics, Desoto, Tex.).

| Compound | IL-8 secretion (IL-8) | induction of TNF-α production (TNF-α) | induction of TGFβ1 production (TGFβ1) | accumulation of cytoplasmic HIF-1α followed by nuclear translocation in a subset of the cells [1] | concentration for HIF-1α induction effect (molar level) [1] [µM] | iron binding capacity [2] [µmol/L] | iron binding capacity compared with desferrioxamine ([2]; compared on a molar equivalent) | potency at inducing HIF-1α compared with desferrioxamine ([1]; THP-1 cells in vitro, molar equivalent) |
| --- | --- | --- | --- | --- | --- | --- | --- | --- |
| CC(=O)N(O)CCCCCNC(=O)CCC(=O)N(O)CCCCCNC(=O)CCC(=O)N(O)CCCCCN [desferroxamine, reference compound] | induction of IL-8 secretion | minimal | minimal | induced accumulation of cytoplasmic HIF-1α in a dose-dependent manner | 10 to 100 | – | – | – |
| Fe^3+-free mycobactin J [Fe^3+-free preparation] | – | – | – | – | – | 66.7 | – | – |
| Fe^3+-mycobactin J complex [Fe^3+-saturated mycobactin] | – | – | – | – | – | 0 | – | – |
| mycobactin J | induction of IL-8 secretion | minimal | minimal | induced accumulation of cytoplasmic HIF-1α in a dose-dependent manner | 1 to 5 | – | lower iron binding capacity than desferrioxamine | significantly more potent |

From patent US8268330B2 (priority 2007, dated 2012)
